Test results as given in patent US20150105252A1, “SUBSTITUTED PYRAZOLES AS HERBICIDES” (E I DU PONT DE NEMOURS AND COMPANY, priority 2013, published 2015).

What was measured:
pigweed [1] = assay: Test A postemergence; format: in vivo, Amaranthus retroflexus
Summary of the method: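 Visual injury rating, 0–100 (0 no effect, 100 complete control), vs untreated controls ~10 days after treatment in greenhouse. Pre: directed soil spray on seeded loam/sand. Post: 2–10 cm plants, 1–2 leaf stage. Formulation: non-phytotoxic solvent mix + surfactant.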

sedge, umbrella = assay: Test B flood; format: in vivo, Cyperus difformis; conditions: 250 g ai/ha, visual rating on 0 to 100 scale (0 no effect, 100 complete control), 13 to 15 days
Summary of the method: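 Plants were grown to the 2-leaf stage and pots flooded to 3 cm above soil. Compounds were applied directly into the paddy water, with depth kept for the test. After 13–15 days in greenhouse, response was rated visually against controls on a 0 (no effect) to 100 (complete control) scale.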

ryegrass, Italian [2] = assay: Test C preemergence; format: in vivo, Lolium multiflorum; conditions: for Plant response rating (scale of 0 to 100), Ryegrass, Italian: Preemergence, 250 g ai/ha; for Ryegrass, Italian plant response rating / Plant response rating, Ryegrass, Italian: preemergence, 13 to 15 days; for Ryegrass, Italian plant response rating: scale 0 to 100 (0 no effect, 100 complete control); for Plant response rating, Ryegrass, Italian: 125 g ai/ha, scale 0 to 100, 0 = no effect, 100 = complete control
Summary of the method: (§1)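 Seeds were sown in a loam soil–sand blend and sprayed preemergence with compounds formulated in a non-phytotoxic solvent mixture containing surfactant. Postemergence plants, grown in peat/vermiculite medium to 2–18 cm (1- to 4-leaf stage), received the same formulation. After 13 to 15 days in a greenhouse, injury was rated visually against controls (0 = no effect, 100 = complete control).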

wheat = assay: Test C preemergence; format: in vivo, Triticum aestivum; conditions: for Plant response rating (scale of 0 to 100), Wheat: Preemergence, 250 g ai/ha; for Wheat plant response rating / Plant response rating, Wheat: preemergence, 13 to 15 days; for Wheat plant response rating: scale 0 to 100 (0 no effect, 100 complete control); for Plant response rating, Wheat: 125 g ai/ha, scale 0 to 100, 0 = no effect, 100 = complete control
Summary of the method: as §1

ragweed = assay: Test C preemergence; format: in vivo, Ambrosia elation; conditions: for Plant response rating (scale of 0 to 100), Ragweed: Preemergence, 250 g ai/ha; for Ragweed plant response rating / Plant response rating, Ragweed: preemergence, 13 to 15 days; for Ragweed plant response rating: scale 0 to 100 (0 no effect, 100 complete control); for Plant response rating, Ragweed: 125 g ai/ha, scale 0 to 100, 0 = no effect, 100 = complete control
Summary of the method: as §1

ryegrass, Italian [3] = assay: Test C postemergence; format: in vivo, Lolium multiflorum; conditions: for Plant response rating (scale of 0 to 100 where 0 is no effect and 100 is complete control), Ryegrass, Italian: Postemergence, 31 g ai/ha, visually evaluated after 13 to 15 days; for Ryegrass, Italian plant response rating / Plant response rating, Ryegrass, Italian: postemergence; for Ryegrass, Italian plant response rating: 62 g ai/ha, scale 0 to 100
Summary of the method: as §1

lambsquarters = assay: Test C postemergence; format: in vivo, Chenopodium album; conditions: for Plant response rating (scale of 0 to 100 where 0 is no effect and 100 is complete control), Lambsquarters: Postemergence, 31 g ai/ha, visually evaluated after 13 to 15 days; for Lambsquarters plant response rating / Plant response rating, Lambsquarters: postemergence; for Lambsquarters plant response rating: 62 g ai/ha, scale 0 to 100
Summary of the method: as §1

pigweed [4] = assay: Test C postemergence; format: in vivo, Amaranthus retroflexus; conditions: for Plant response rating (scale of 0 to 100 where 0 is no effect and 100 is complete control), Pigweed: Postemergence, 31 g ai/ha, visually evaluated after 13 to 15 days; for Pigweed plant response rating / Plant response rating, Pigweed: postemergence; for Pigweed plant response rating: 62 g ai/ha, scale 0 to 100
Summary of the method: as §1

soybean = assay: Test C postemergence; format: in vivo, Glycine max; conditions: for Plant response rating (scale of 0 to 100 where 0 is no effect and 100 is complete control), Soybean: Postemergence, 31 g ai/ha, visually evaluated after 13 to 15 days; for Soybean plant response rating / Plant response rating, Soybean: postemergence; for Soybean plant response rating: 62 g ai/ha, scale 0 to 100
Summary of the method: as §1

oat, wild = assay: Test C postemergence; format: in vivo, Avena fatua; conditions: for Plant response rating (scale of 0 to 100 where 0 is no effect and 100 is complete control), Oat, Wild: Postemergence, 31 g ai/ha, visually evaluated after 13 to 15 days; for Oat, Wild plant response rating / Plant response rating, Oat, Wild: postemergence; for Oat, Wild plant response rating: 62 g ai/ha, scale 0 to 100
Summary of the method: as §1

[5] = Postemergence, 500 g ai/ha, 0 to 100 scale (0 no effect, 100 complete control)
[6] = postemergence, 125 g ai/ha, about 10 days, visual rating on 0 to 100 scale (0 no effect, 100 complete control)
[7] = 250 g ai/ha, scale 0 to 100 (0 no effect, 100 complete control)
[8] = 125 g ai/ha, scale 0 to 100, 0 no effect, 100 complete control

| Compound | Pigweed plant response rating (pigweed [1]; [5]) | Pigweed plant response rating (pigweed [1]; [6]) | Plant response rating, Sedge, Umbrella (sedge, umbrella) | Plant response rating (scale of 0 to 100), Ryegrass, Italian (ryegrass, Italian [2]) | Ryegrass, Italian plant response rating (ryegrass, Italian [2]; 31 g ai/ha, visual rating) | Ryegrass, Italian plant response rating (ryegrass, Italian [2]; 62 g ai/ha) | Plant response rating, Ryegrass, Italian (ryegrass, Italian [2]) | Plant response rating (scale of 0 to 100), Wheat (wheat) | Wheat plant response rating (wheat; 31 g ai/ha, visual rating) | Wheat plant response rating (wheat; 62 g ai/ha) | Plant response rating, Wheat (wheat) | Plant response rating (scale of 0 to 100), Ragweed (ragweed) | Ragweed plant response rating (ragweed; 31 g ai/ha, visual rating) | Ragweed plant response rating (ragweed; 62 g ai/ha) | Plant response rating, Ragweed (ragweed) | Plant response rating (scale of 0 to 100 where 0 is no effect and 100 is complete control), Ryegrass, Italian (ryegrass, Italian [3]) | Ryegrass, Italian plant response rating (ryegrass, Italian [3]) | Plant response rating, Ryegrass, Italian (ryegrass, Italian [3]; [7]) | Plant response rating, Ryegrass, Italian (ryegrass, Italian [3]; [8]) | Plant response rating (scale of 0 to 100 where 0 is no effect and 100 is complete control), Lambsquarters (lambsquarters) | other results |
| --- | --- | --- | --- | --- | --- | --- | --- | --- | --- | --- | --- | --- | --- | --- | --- | --- | --- | --- | --- | --- | --- |
| CCCc1cc(C(=O)NCC(F)(F)F)nn1Cc1ccnc(OC(F)F)c1 [Compound 127] | 90 | 90 | 85 | 80 | 25 | 60 | 80 | 85 | 5 | 40 | 85 | 90 | 15 | 25 | 60 | 5 | 5 | 40 | 10 | 65 | Lambsquarters plant response rating (lambsquarters): 80; Plant response rating, Lambsquarters (lambsquarters; [7]): 85; Plant response rating, Lambsquarters (lambsquarters; [8]): 85; Plant response rating (scale of 0 to 100 where 0 is no effect and 100 is complete control), Pigweed (pigweed [4]): 35; Pigweed plant response rating (pigweed [4]): 70; Plant response rating, Pigweed (pigweed [4]; [7]): 85; Plant response rating, Pigweed (pigweed [4]; [8]): 75; Plant response rating (scale of 0 to 100 where 0 is no effect and 100 is complete control), Soybean (soybean): 40; Soybean plant response rating (soybean): 65; Plant response rating, Soybean (soybean; [7]): 85; Plant response rating, Soybean (soybean; [8]): 70; Plant response rating (scale of 0 to 100 where 0 is no effect and 100 is complete control), Oat, Wild (oat, wild): 5; Oat, Wild plant response rating (oat, wild): 5; Plant response rating, Oat, Wild (oat, wild; [7]): 35; Plant response rating, Oat, Wild (oat, wild; [8]): 5 |
| CCOc1cc(C(=O)NCC(F)(F)F)nn1Cc1ccnc(OC(F)F)c1 [Compound 128] | 100 | 100 | 90 | 95 | 5 | 70 | 90 | 85 | 20 | 30 | 70 | 90 | 25 | 65 | 85 | 5 | 10 | 30 | 15 | 60 | Lambsquarters plant response rating (lambsquarters): 80; Plant response rating, Lambsquarters (lambsquarters; [7]): 98; Plant response rating, Lambsquarters (lambsquarters; [8]): 95; Plant response rating (scale of 0 to 100 where 0 is no effect and 100 is complete control), Pigweed (pigweed [4]): 65; Pigweed plant response rating (pigweed [4]): 70; Plant response rating, Pigweed (pigweed [4]; [7]): 90; Plant response rating, Pigweed (pigweed [4]; [8]): 65; Plant response rating (scale of 0 to 100 where 0 is no effect and 100 is complete control), Soybean (soybean): 65; Soybean plant response rating (soybean): 95; Plant response rating, Soybean (soybean; [7]): 98; Plant response rating, Soybean (soybean; [8]): 95; Plant response rating (scale of 0 to 100 where 0 is no effect and 100 is complete control), Oat, Wild (oat, wild): 5; Oat, Wild plant response rating (oat, wild): 10; Plant response rating, Oat, Wild (oat, wild; [7]): 20; Plant response rating, Oat, Wild (oat, wild; [8]): 25 |
